Measurements from ChEMBL document CHEMBL6177946, “Design, synthesis and biological evaluation of Streptazolin analogs as anti-inflammatory agents” (Bioorg Med Chem Lett, 2025).
Activity calls are given as the source filed them. The calls are words filed in the database; no cut-off is given here.

Legend:
Escherichia coli = assay: Antibacterial activity against Escherichia coli assessed as inhibition of bacterial growth at 100 uM; format: functional, organism-based
RAW264.7 [1] = assay: Anti-inflammatory activity against LPS-induced mouse RAW264.7 cells assessed as inhibition of NO production at 100 uM; format: functional, cell-based
Pseudomonas aeruginosa = assay: Antibacterial activity against Pseudomonas aeruginosa assessed as inhibition of bacterial growth at 100 uM; format: functional, organism-based
Bacillus subtilis = assay: Antibacterial activity against Bacillus subtilis assessed as inhibition of bacterial growth at 100 uM; format: functional, organism-based
Staphylococcus aureus = assay: Antibacterial activity against Staphylococcus aureus assessed as inhibition of bacterial growth at 100 uM; format: functional, organism-based
RAW264.7 [2] = assay: Anti-inflammatory activity against LPS-induced mouse RAW264.7 cells assessed as inhibition of IL-1 beta production at 100 uM by ELISA; format: functional
RAW264.7 [3] = assay: Cytotoxicity against mouse RAW264.7 cells assessed as effect on cell viability at 100 uM; format: toxicity, cell-based; conditions: raw264.7, 100 µM
RAW264.7 [4] = assay: Anti-inflammatory activity against LPS-induced mouse RAW264.7 cells assessed as inhibition of TNF-alpha production at 100 uM by ELISA; format: functional
[5] = Stability of the compound in dichloromethane measured after 2 months; format: physicochemical; conditions: 1460 h
RAW264.7 [6] = assay: Anti-inflammatory activity against LPS-induced mouse RAW264.7 cells assessed as inhibition of NO production; format: functional, cell-based
RAW264.7 [7] = assay: Pro-inflamamtory activity in LPS-induced mouse RAW264.7 cells assessed as increase in NO production at 100 uM; format: functional, cell-based

Stability [5] | IC50 (RAW264.7 [6]) [µM] | SMILES | Activity (Escherichia coli) | Activity (RAW264.7 [1]) | Activity (Pseudomonas aeruginosa) | Activity (Bacillus subtilis) | Activity (Staphylococcus aureus) | inhibition at 100 µM (RAW264.7 [2]) [%] | Activity (RAW264.7 [3]) | inhibition at 100 µM (RAW264.7 [4]) [%] | Activity (RAW264.7 [6]) | Activity (RAW264.7 [7])
– | – | C/C=C1/C2=CCCN3C(=O)O[C@H]([C@H]1OC(=O)c1ccccc1)[C@H]23 | inactive | Active | inactive | inactive | inactive | – | – | – | – | –
– | – | C/C=C1/C2=CCCN3C(=O)O[C@H]([C@@H]1Cl)[C@H]23 | inactive | – | inactive | inactive | inactive | – | – | – | – | –
– | – | C/C=C1/C2=CCCN3C(=O)O[C@H]([C@H]1OC(C)=O)[C@H]23 | inactive | inactive | inactive | inactive | inactive | – | – | – | – | –
– | – | C/C=C1/C2=CCCN3C(=O)O[C@H]([C@H]1OC(=O)CCC)[C@H]23 | inactive | inactive | inactive | inactive | inactive | – | – | – | – | –
– | – | C/C=C1/C2=CCCN3C(=O)O[C@H]([C@H]1OC(=O)CC)[C@H]23 | inactive | inactive | inactive | inactive | inactive | – | – | – | – | –
– | – | C/C=C1/C2=CCCN3C(=O)O[C@H]([C@H]1OC(=O)CCCCCCCCCCC)[C@H]23 | inactive | inactive | inactive | inactive | inactive | – | – | – | – | –
– | – | C/C=C1/C2=CCCN3C(=O)O[C@H]([C@H]1OC(=O)c1ccc(C)cc1)[C@H]23 | inactive | Active | inactive | inactive | inactive | – | – | – | – | –
– | – | C/C=C1/C2=CCCN3C(=O)O[C@H]([C@H]1OC(=O)C(C)(C)C)[C@H]23 | inactive | Active | inactive | inactive | inactive | – | – | – | – | –
Stable | 8.8 | C/C=C1/C2=CCCN3C(=O)O[C@H]([C@H]1OC(=O)CCCC)[C@H]23 | inactive | Active | inactive | inactive | inactive | > 90 | Non-toxic | ≤ 60 | Dose-dependent-effect | –
– | – | C/C=C1/C2=CCCN3C(=O)O[C@H]([C@H]1OC(=O)CCCCCCCCC)[C@H]23 | inactive | inactive | inactive | inactive | inactive | – | – | – | – | Active
– | – | C/C=C1/C2=CCCN3C(=O)O[C@H]([C@H]1OC(=O)C1CCCCC1)[C@H]23 | inactive | Active | inactive | inactive | inactive | – | – | – | – | –
– | – | C/C=C1/C2=CCCN3C(=O)O[C@H]([C@H]1OS(=O)(=O)CCC)[C@H]23 | inactive | Active | inactive | inactive | inactive | – | – | – | – | –
– | – | C/C=C1/C2=CCCN3C(=O)O[C@H]([C@H]1OS(C)(=O)=O)[C@H]23 | inactive | Active | inactive | inactive | inactive | – | – | – | – | –
– | – | C/C=C1/C2=CCCN3C(=O)O[C@H]([C@H]1O)[C@H]23 | inactive | – | inactive | inactive | inactive | – | – | – | – | Active
– | – | C/C=C1/C2=CCCN3C(=O)O[C@H]([C@H]1OC(=O)/C=C/c1ccccc1)[C@H]23 | inactive | Active | inactive | inactive | inactive | – | – | – | – | –
– | – | C/C=C1/C2=CCCN3C(=O)O[C@H]([C@H]1OC(=O)C(C)C)[C@H]23 | inactive | inactive | inactive | inactive | inactive | – | – | – | – | –
